Measurements: patent US8680290B2, “Isoxazoline derivatives and their use as herbicides” (Syngenta Limited, priority 2004, dated 2014)

How the values were obtained:
[1] = tested on: Monocotyledonous and dicotyledonous test plants; assay: Example B1 herbicidal action, application post-emergence (Table B1a); type: in vivo; details: 250 g/ha, evaluated after 3 weeks, scale 0-10
Protocol: Monocotyledonous and dicotyledonous test plants were sown in seed trays in standard soil. Immediately after sowing (pre-emergence) or after 8 to 9 days cultivation (post-emergence), the test compounds were applied by spraying in the form of an aqueous solution derived from the formulation of the technical active ingredient in 0.6 ml acetone and 45 ml formulation solution containing 10.6% Emulsogen EL (CAS RN 61791-12-6), 42.2% N-methylpyrrolidone, 42.2% dipropylene glycol monomethyl ether (CAS RN 34590-94-8) and 0.2% X-77 (CAS RN 11097-66-8). The test plants were then grown in a greenhouse under optimum conditions. After a test duration of 3 weeks (post-emergence) or 4 weeks (pre-emergence), the test was evaluated (10=total damage to plant, 0=no damage to plant).

[2] = tested on: Monocotyledonous and dicotyledonous test plants; assay: Example B1 herbicidal action, application pre-emergence (Table B1b); type: in vivo; details: 250 g/ha, evaluated after 4 weeks
Summary of the method: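 Visual damage rating, 10 = plant dead and 0 = unharmed, taken at 3 weeks for post-emergence and 4 weeks for pre-emergence treatment. Application by spray of formulated aqueous solution either immediately after sowing or at 8–9 days' growth, with mono- and dicot plants kept in a greenhouse.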

SMILES	herbicidal damage rating, Abutilon [1]	herbicidal damage rating, Amaranthus [1]	herbicidal damage rating, Digitaria [1]	herbicidal damage rating, Panicum [1]	herbicidal damage rating, Setaria [1]	herbicidal damage rating, Sida [1]	herbicidal action (damage rating 0-10), Amaranthus [2]	herbicidal action (damage rating 0-10), Digitaria [2]	herbicidal action (damage rating 0-10), Panicum [2]	herbicidal action (damage rating 0-10), Setaria [2]	herbicidal action (damage rating 0-10), Sida [2]
CC1(C)CC(S(=O)(=O)C(Cl)c2cc(F)cc3c2OCOC3)=NO1 (centres unmarked) [1.147]	2	3	7	8	0	0	5	10	10	9	0
Cc1ccccc1C(F)S(=O)(=O)C1=NOC(C)(C)C1 (racemic) [1.93]	3	7	7	8	3	2	8	10	10	10	6
Cn1nc(C(F)(F)F)c(C(F)(Cl)S(=O)(=O)C2=NOC(C)(C)C2)c1OC(F)F (centres unmarked) [2.14]	7	8	7	7	4	7	10	10	10	10	9
Cc1ccccc1C(F)(Cl)S(=O)(=O)C1=NOC(C)(C)C1 (racemic) [1.74]	0	0	8	5	3	3	5	9	10	9	7
Cc1ccc(F)c(C(Br)S(=O)(=O)C2=NOC(C)(C)C2)c1F (centres unmarked) [1.102]	0	0	8	5	4	2	8	10	10	9	2
Cn1nc(C(F)(F)F)c(C(Cl)S(=O)(=O)C2=NOC(C)(C)C2)c1Cl (centres unmarked) [2.05]	4	0	3	7	0	3	5	9	10	10	8
Cn1nc(C(F)(F)F)c(C(Cl)(Cl)S(=O)(=O)C2=NOC(C)(C)C2)c1OCC(F)(F)F [2.13]	6	7	5	7	8	7	10	10	10	10	7
COc1cc(OC)cc(C(F)(Cl)S(=O)(=O)C2=NOC(C)(C)C2)c1 (racemic) [1.96]	5	0	8	5	3	2	9	10	10	10	4
CC1(C)CC(S(=O)(=O)C(F)(Cl)c2ccccc2C#N)=NO1 (racemic) [1.71]	0	5	8	0	3	2	10	9	10	9	5
Cc1ccc(F)c(C(F)(Cl)S(=O)(=O)C2=NOC(C)(C)C2)c1F (centres unmarked) [1.146]	5	3	8	5	6	2	8	10	10	10	5
CC1(C)CC(S(=O)(=O)C(F)(Br)c2c(F)cccc2F)=NO1 (centres unmarked) [Compound No. 1.63, 3-[bromo-(2,6-difluorophenyl)-fluoro-methanesulfonyl]-5,5-dimethyl-4,5-dihydroisoxazole]	4	3	7	7	7	4	10	10	10	10	8
CC1(C)CC(S(=O)(=O)C(F)(Cl)c2ccc(F)cc2F)=NO1 (centres unmarked) [1.133]	0	5	8	7	5	4	10	10	10	10	6
CC1(C)CC(S(=O)(=O)C(F)(F)c2ccccc2[S+]([O-])C(F)(F)F)=NO1 (racemic) [1.69]	4	3	8	5	7	5	5	10	10	10	4
CC1(C)CC(S(=O)(=O)C(F)(F)c2ccc(F)cc2F)=NO1 [1.118]	5	3	8	5	7	3	10	10	10	10	8
Cn1nc(C(F)(F)F)c(C(F)(F)S(=O)(=O)C2=NOC(C)(C)C2)c1Cl [2.03]	7	0	7	7	7	6	10	10	10	10	8
CC1(C)CC(S(=O)(=O)C(Cl)c2cccnc2Cl)=NO1 (centres unmarked) [8.01]	3	0	0	3	0	3	5	8	8	5	0
